Eight compounds from patent EP0326329B1, “Quinazoline derivatives useful as insecticides” (Dow AgroSciences LLC, priority 1988, dated 1989) can be followed below.

Holding throughout (assay type): in vivo
Experiment [1] has as its system Twospotted spider mites (Tetranychus urticae Koch). Briefly: Mite/insect screen, sprayed squash cotyledons (SM). The settings on record: Tetranychus urticae, percent mortality, read-out: SM RESULTS %; for mortality at 200 ppm: spray rate 200 ppm; for mortality at 400 ppm: spray rate 400 ppm. The gist of the method: (§1)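 Water-diluted formulations of each compound (acetone/alcohol 50:50 with 23 g/L and 13 g/L emulsifier blends) are sprayed over both leaf faces to runoff. After a standard exposure period, percent kill and phytotoxicity are recorded.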

For experiment [2], the system named is melon aphids (Aphis gossypii Glover). In words: Mite/insect screen, sprayed squash cotyledons (MA). The settings on record: Aphis gossypii, percent mortality, read-out: MA RESULTS %; for mortality at 200 ppm: spray rate 200 ppm; for mortality at 400 ppm: spray rate 400 ppm. The gist of the method:
as §1

The subject of experiment [3] is southern armyworm (Spodopetra eridania Cramer). Briefly: Mite/insect screen, sprayed squash leaves (SAW). To be noted: Spodoptera eridania, percent mortality, read-out: SAW RESULTS %; for mortality at 200 ppm: spray rate 200 ppm; for mortality at 400 ppm: spray rate 400 ppm. The gist of the method: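 Steps: formulate compound in acetone/alcohol 50:50 carrying emulsifiers; dilute with water; spray leaves until runoff on upper and lower surfaces; air-dry one hour; for armyworm, excise two […] leaves into a dish of larvae; after exposure, score mortality and plant injury.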

The test system of experiment [4] is Erysiphe graminis tritici (powdery mildew). Briefly: Greenhouse Test 1, foliar spray fungicide screen (POWD MDEW), host wheat. To be noted: disease control rating, 400 ppm (+++ at 100 ppm).
Experiment [5] concerns Pseudoperonospora cubensis (downy mildew). In words: Greenhouse Test 1, foliar spray fungicide screen (DOWN MDEW), host squash. To be noted: disease control rating, 400 ppm (+++ at 100 ppm).
Experiment [6] relates to Botrytis cinerea (gray mold). Briefly: Greenhouse Test 1, foliar spray fungicide screen (GRAY MOLD), host grape berries. To be noted: disease control rating, 400 ppm (+++ at 100 ppm).
Experiment [7] concerns Southern corn rootworm (Diabrotica undecimpuctata howardi Barber). Briefly: Mite/insect screen, soil treatment (CRW). To be noted: Diabrotica, percent mortality, soil treatment, read-out: CRW RESULTS %; for mortality at 12 ppm: CRW rate 12.00 ppm; for mortality at 24 ppm: CRW rate 24.00 ppm. The procedure, abridged: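 Five 2–3 instar larvae were placed on dry sandy soil with a presoaked corn seed after the soil had received 1 mL of compound solution and dried 6–12 h; cups were kept capped at 23°C. Mortality (%) and phytotoxicity were read after standard exposure. Formulation: acetone/alcohol with emulsifiers, water-diluted.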

Experiment [8] relates to Pyricularia oryzae (rice blast). To be noted: disease control rating, foliar spray, host rice; 400 ppm (+++ at 100 ppm).
In experiment [9] the test system is Puccinia recondita tritici (leaf rust). In words: Greenhouse Test 1, foliar spray fungicide screen (LEAF RUST), host wheat. The settings on record: disease control rating, 400 ppm (+++ at 100 ppm).

Regarding `CCCCOc1ccc(CCOc2ncnc3c(F)cccc23)cc1` [Example 156, 8-fluoro-4-[2-(4-butoxyphenyl)ethoxy]quinazoline], in experiment [1], the mortality at 200 ppm is 100% and the mortality at 400 ppm is 80%. Besides, in experiment [2], the mortality at 200 ppm amounted to 100% and the mortality at 400 ppm worked out at 100%. In addition, in experiment [3], the mortality at 200 ppm was found to be 60% and the mortality at 400 ppm is 0%. In addition, the “POWD MDEW” value in experiment [4] is “+++ (+++ = 90-100% control at 100 ppm)”. Moreover, the “DOWN MDEW” value in experiment [5] is recorded as “+++ (+++ = 90-100% control at 100 ppm)”. Moreover, in [6], the “GRAY MOLD” value was “- (- = 0-19% control at 400 ppm)”. Moreover, in experiment [7], the mortality at 12 ppm came out at 0% and the mortality at 24 ppm stood at 0%. Besides, the “RICE BLAST” value in [8] is “+++ (+++ = 90-100% control at 100 ppm)”. For the same compound, the “LEAF RUST” value in [9] is “+++ (+++ = 90-100% control at 100 ppm)”.

For `CCOc1ccc(CCCOc2ncnc3ccccc23)cc1` [Example 158, 4-[3-(4-ethoxyphenyl)propoxy]quinazoline], the mortality at 200 ppm in experiment [1], in [2] and in experiment [3] was 0% in each case. The mortality at 400 ppm in experiment [1] is 60%; in [2], 40%; in experiment [3], 0%. Further, the “POWD MDEW” value in experiment [4] is given as “+ (+ = 20-89% control at 400 ppm)”. Also, in [5], the “DOWN MDEW” value is “+++ (+++ = 90-100% control at 100 ppm)”. For the same compound, in experiment [6], the “GRAY MOLD” value was “- (- = 0-19% control at 400 ppm)”. Besides, the mortality at 12 ppm in experiment [7] came to 0%. Besides, the mortality at 24 ppm in experiment [7] came to 0%. The “RICE BLAST” value in experiment [8] was “++ (++ = 90-100% control at 400 ppm)”. In addition, the “LEAF RUST” value in experiment [9] was “+ (+ = 20-89% control at 400 ppm)”.

Take `Fc1ccc(CCOc2ncnc3c(F)cccc23)c(F)c1` [Example 159, 8-fluoro-4-[2-(2,4-difluorophenyl)ethoxy]quinazoline]: in [1], the mortality at 200 ppm turned out to be 90% and the mortality at 400 ppm stood at 80%. In addition, in experiment [2], the mortality at 200 ppm was found to be 80% and the mortality at 400 ppm turned out to be 100%. In addition, in experiment [3], the mortality at 200 ppm came to 0% and the mortality at 400 ppm worked out at 0%. For the same compound, the “POWD MDEW” value in experiment [4] is listed as “+++ (+++ = 90-100% control at 100 ppm)”. The “DOWN MDEW” value in experiment [5] is “+++ (+++ = 90-100% control at 100 ppm)”. Further, in experiment [6], the “GRAY MOLD” value is listed as “- (- = 0-19% control at 400 ppm)”. Moreover, in experiment [7], the mortality at 12 ppm stood at 0% and the mortality at 24 ppm came out at 0%. Also, the “RICE BLAST” value in experiment [8] is “+++ (+++ = 90-100% control at 100 ppm)”. For the same compound, the “LEAF RUST” value in experiment [9] is “+++ (+++ = 90-100% control at 100 ppm)”.

As for `CC(COc1ncnc2ccccc12)c1ccc(Oc2ccccc2)cc1` (centres unmarked) [Example 161, 4-[2-(4-phenoxyphenyl)propoxy]quinazoline], in [1], the mortality at 200 ppm worked out at 70% and the mortality at 400 ppm turned out to be 0%. Also, in experiment [2], the mortality at 200 ppm was determined as 30% and the mortality at 400 ppm is 0%. Moreover, in experiment [3], the mortality at 200 ppm came to 20% and the mortality at 400 ppm came to 100%. For the same compound, the “POWD MDEW” value in experiment [4] is “+ (+ = 20-89% control at 400 ppm)”. Besides, the “DOWN MDEW” value in [5] is listed as “- (- = 0-19% control at 400 ppm)”. Further, in [6], the “GRAY MOLD” value is given as “- (- = 0-19% control at 400 ppm)”. In addition, in experiment [7], the mortality at 12 ppm is 0% and the mortality at 24 ppm was 100%. Besides, the “RICE BLAST” value in experiment [8] is “+ (+ = 20-89% control at 400 ppm)”. Moreover, the “LEAF RUST” value in experiment [9] is “++ (++ = 90-100% control at 400 ppm)”.

With `Fc1ccccc1Oc1ccc(CCOc2ncnc3ccccc23)cc1` [Example 162, 4-(2-[4-(2-fluorophenoxy)phenyl]ethoxy]quinazoline], the mortality at 200 ppm stood at 100% in [1], 80% in [2] and 60% in experiment [3]. In addition, the mortality at 400 ppm came out at 100% in experiment [1], 80% in [2] and 0% in [3]. For the same compound, the “POWD MDEW” value in experiment [4] is listed as “+++ (+++ = 90-100% control at 100 ppm)”. In addition, the “DOWN MDEW” value in experiment [5] is reported as “+++ (+++ = 90-100% control at 100 ppm)”. For the same compound, the “GRAY MOLD” value in [6] is given as “- (- = 0-19% control at 400 ppm)”. Besides, in experiment [7], the mortality at 12 ppm was 0%. In addition, the mortality at 24 ppm in [7] is 100%. The “RICE BLAST” value in experiment [8] is on record as “+++ (+++ = 90-100% control at 100 ppm)”. For the same compound, in experiment [9], the “LEAF RUST” value is given as “+++ (+++ = 90-100% control at 100 ppm)”.

Turning to `Fc1cccc2c(OCCc3cccc(Oc4ccccc4)c3)ncnc12` [Example 163, 8-fluoro-4-[2-(3-phenoxyphenyl)ethoxy]quinazoline], in [1], the mortality at 200 ppm turned out to be 0% and the mortality at 400 ppm was 20%. Moreover, in experiment [2], the mortality at 200 ppm turned out to be 80% and the mortality at 400 ppm came out at 80%. Further, in [3], the mortality at 200 ppm came out at 80% and the mortality at 400 ppm was 40%. Further, the “POWD MDEW” value in experiment [4] is given as “+++ (+++ = 90-100% control at 100 ppm)”. For the same compound, the “DOWN MDEW” value in [5] was “+++ (+++ = 90-100% control at 100 ppm)”. Moreover, the “GRAY MOLD” value in experiment [6] is “- (- = 0-19% control at 400 ppm)”. Also, in [7], the mortality at 12 ppm was 0% and the mortality at 24 ppm was 0%. Further, the “RICE BLAST” value in experiment [8] was “+++ (+++ = 90-100% control at 100 ppm)”. Further, the “LEAF RUST” value in experiment [9] is listed as “+++ (+++ = 90-100% control at 100 ppm)”.

For `c1ccc(Oc2ccc(CCCc3ncnc4ccccc34)cc2)cc1` [Example 164, 4-[3-(4-phenoxyphenyl)propyl]quinazoline], in experiment [1], the mortality at 200 ppm was determined as 80% and the mortality at 400 ppm is 20%. Further, in [2], the mortality at 200 ppm stood at 80% and the mortality at 400 ppm came to 80%. For the same compound, in experiment [3], the mortality at 200 ppm was determined as 40% and the mortality at 400 ppm is 40%. In experiment [4], the “POWD MDEW” value is recorded as “+ (+ = 20-89% control at 400 ppm)”. The “DOWN MDEW” value in experiment [5] is recorded as “+++ (+++ = 90-100% control at 100 ppm)”. Moreover, in experiment [6], the “GRAY MOLD” value is recorded as “- (- = 0-19% control at 400 ppm)”. Moreover, in [7], the mortality at 12 ppm came to 0% and the mortality at 24 ppm worked out at 0%. Further, in experiment [8], the “RICE BLAST” value is listed as “+++ (+++ = 90-100% control at 100 ppm)”. The “LEAF RUST” value in experiment [9] was “+++ (+++ = 90-100% control at 100 ppm)”.

For `CC(C)C(COc1ncnc2ccccc12)c1ccccc1` (centres unmarked) [Example 165, 4-(3-methyl-2-phenylbutoxy)quinazoline], in [1], the mortality at 200 ppm was determined as 0% and the mortality at 400 ppm is 0%. In addition, in [2], the mortality at 200 ppm amounted to 50% and the mortality at 400 ppm is 80%. Besides, in [3], the mortality at 200 ppm came to 0% and the mortality at 400 ppm was 0%. Besides, the “POWD MDEW” value in [4] is “++ (++ = 90-100% control at 400 ppm)”. In addition, in experiment [5], the “DOWN MDEW” value is reported as “++ (++ = 90-100% control at 400 ppm)”. Besides, in [6], the “GRAY MOLD” value is reported as “- (- = 0-19% control at 400 ppm)”. In experiment [7], the mortality at 12 ppm amounted to 0% and the mortality at 24 ppm came out at 0%. Also, the “RICE BLAST” value in experiment [8] is recorded as “++ (++ = 90-100% control at 400 ppm)”. For the same compound, the “LEAF RUST” value in experiment [9] is recorded as “++ (++ = 90-100% control at 400 ppm)”.
